Source: paper PMC8355692, “Antimelanoma activities of chimeric thiazole–androstenone derivatives” (Royal Society Open Science, 2021)

Columns and labels:
Assay type in all cases: cell-based
endonuclease G (EndoG) = assay: EndoG immunocytochemistry combined with TUNEL (caspase-independent apoptosis); conditions: melanoma cells, 5 or 10 µM, 24 h
Excerpt: (§1) The elevation was dose-dependent.
(§2) Figure 4. […] (c) Representative images. […] Mean ± s.e.m., n = 4 per group.
(§3) Figure 5. […] (a) Representative images of TUNEL colocalized or not colocalized with each of the three protein markers used in this study. […] Mean ± s.e.m., n = 4 per group.
(§4) Thus, to determine the mechanism of action of our compounds on melanoma cells in vitro, we applied the fluorescent TUNEL assay combined with quantitative ICC for three markers: HO1 for oxidative cell injury, CAD for caspase-mediated apoptosis and EndoG for caspase-independent apoptosis. […] However, none of the compounds or dacarbazine induced apoptotic endonucleases. This is not surprising because apoptotic endonucleases are commonly present in the cell in sufficient amounts to be able to destroy DNA upon cell death without induction (which most likely would not be possible in a dead cell).

HFF-1 cell line = assay: Toxicity for normal human foreskin fibroblast cell line; conditions: normal human foreskin fibroblast HFF-1; for IC50: read-out: IC50 against HFF1 cell line
Excerpt: To assess the potential use of lead compounds as anti-melanoma agents, we tested their toxicity for the normal human foreskin fibroblast (HFF-1) cell line taking into consideration that MM is usually surrounded by the cells of this kind. The effects of some of the potent compounds on this cell line were very encouraging (table 4).

heme oxygenase-1 (HO1) = assay: HO1 immunocytochemistry combined with TUNEL (oxidative injury); conditions: melanoma cells, 24 h; for HO1 staining in TUNEL-positive cells (oxidative injury): 5 or 10 µM; for HO1 mean intensity (oxidative injury): 10 µM
Excerpt: as §1, §2, §3, §4

SK-MEL-28 = assay: NCI DTP 60 cell line five-concentration test, melanoma panel; conditions: for CC50: SK-MEL-28, read-out: LC50 (50% lethal concentration)
Experimental: (§5) In our effort to develop new methodologies to synthesize bioactive compounds [11–14], we have synthesized a number of thiazole and thiazolo-androstenone derivatives. We submitted 50 of the synthesized thiazole–androstenone derivatives to the National Cancer Institute (NCI) Development Therapeutics Program (DTP) to test against 60 cancer cell lines (https://dtp.cancer.gov/). These compounds were tested for cytotoxicity at a single dose of 10 µM. […] Eight of these chimeric compounds (figure 2) were selected for further testing at five different concentrations to determine 50% growth inhibition (GI50), total growth inhibition (TGI) and 50% lethal concentration (LC50) values. […] Overall, amino-thiazole derivatives (table 1, 1–7) were more toxic to melanoma cell lines than phenyl thiazole derivatives (8). Fluoro and oxy (hydroxy and methoxy) derivatives were the potent growth inhibitors of the tested cancer cell lines. LOX IMVI cell line was the most susceptible among all the melanoma cell lines used against the tested compounds (table 1). […] Phenyl ethyl derivative (1) inhibited the growth of all the cell lines except SK-MEL-2. […] 2,4-Dimethyl substituted derivative (7) is a potent growth inhibitor of all the tested cell lines of the melanoma panel.

UACC-257 = assay: as above; conditions: for CC50 / GI50: Homo sapiens; for CC50: UACC-257, read-out: LC50 (50% lethal concentration); for GI50 / TGI (total growth inhibition): UACC-257 melanoma cell line
Experimental: as §5

MALME-3M = assay: as above; conditions: for CC50 / GI50: Homo sapiens; for CC50: Malme-3M, read-out: LC50 (50% lethal concentration); for GI50 / TGI (total growth inhibition): MALME-3M melanoma cell line
Experimental: as §5

SK-MEL-2 = assay: as above; conditions: for LC50 (50% lethal concentration) / GI50: Homo sapiens; for LC50 (50% lethal concentration): SK-MEL-2, read-out: LC50 (50% lethal concentration); for GI50 / TGI (total growth inhibition): SK-MEL-2 melanoma cell line
Experimental: as §5

M14 = assay: as above; conditions: for CC50: M14, read-out: LC50 (50% lethal concentration)
Experimental: as §5

MDA-MB-435 = assay: as above; conditions: for CC50 / GI50: Homo sapiens; for CC50: MDA-MB-435, read-out: LC50 (50% lethal concentration); for GI50 / TGI (total growth inhibition): MDA-MB-435 melanoma cell line
Experimental: as §5

LOX IMVI = assay: as above; conditions: for LC50 (50% lethal concentration) / GI50: Homo sapiens; for LC50 (50% lethal concentration): LOX IMVI, read-out: LC50 (50% lethal concentration); for GI50 / TGI (total growth inhibition): LOX IMVI melanoma cell line
Experimental: as §5

UACC-62 = assay: as above; conditions: for LC50 (50% lethal concentration): UACC-62, read-out: LC50 (50% lethal concentration)
Experimental: as §5

SK-MEL-5 = assay: as above; conditions: for CC50 / GI50: Homo sapiens; for CC50: SK-MEL-5, read-out: LC50 (50% lethal concentration); for GI50 / TGI (total growth inhibition): SK-MEL-5 melanoma cell line
Experimental: as §5

SK-MEL-28 cell line = assay: Annexin V flow cytometry apoptosis assay
Experimental: After determining the selective toxicity of potent molecules, we determined their mode of action against the melanoma cell line. Apoptosis or programmed cell death is a physiological process to remove unwanted or damaged mammalian cells. We detected apoptosis mode of cell death by our potent compounds using flow cytometry-based Annexin V assay. Compound 3 caused 23% apoptosis at 6 µM and 54% apoptosis at 12 µM (figure 3). 3-Fluorophenyl derivative (5) was a very potent apoptosis-inducing agent that caused 100% cell death at 12 µM concentration. Dacarbazine, the positive control, caused 22% apoptotic cell death at 200 µM concentration.
Figure 3. Apoptosis measurements using Annexin V flow cytometry assay of compounds 3 and 5 against SK-MEL-28 cell line at 6 and 12 µM concentrations. DMSO and dacarbazine (Daca) are negative and positive controls, respectively. Mean ± s.e.m., n = 3 per group.

[1] = test system: caspase-activated DNase (CAD); assay: CAD immunocytochemistry combined with TUNEL (caspase-mediated apoptosis); conditions: melanoma cells, 5 or 10 µM, 24 h
Excerpt: as §1, §2, §3, §4

[2] = Homo sapiens, SK-MEL-28, SK-MEL-28 melanoma cell line
[3] = Homo sapiens, M14, M14 melanoma cell line
[4] = Homo sapiens, UACC-62, UACC-62 melanoma cell line

SMILES | IC50 (HFF-1 cell line) | GI50 (SK-MEL-28; [2]) | CC50 (SK-MEL-28; Homo sapiens) | TGI (total growth inhibition) (SK-MEL-28; SK-MEL-28 melanoma cell line) | CC50 (UACC-257) | GI50 (UACC-257) | CC50 (MALME-3M) | GI50 (MALME-3M) | TGI (total growth inhibition) (MALME-3M) | LC50 (50% lethal concentration) (SK-MEL-2) | GI50 (SK-MEL-2) | TGI (total growth inhibition) (SK-MEL-2) | GI50 (M14; [3]) | CC50 (M14; Homo sapiens) | TGI (total growth inhibition) (M14; M14 melanoma cell line) | CC50 (MDA-MB-435) | GI50 (MDA-MB-435) | TGI (total growth inhibition) (MDA-MB-435) | LC50 (50% lethal concentration) (LOX IMVI) | GI50 (LOX IMVI) | also measured
C[C@]12CCc3nc(Nc4ccc(OC(F)(F)F)cc4)sc3C1=CC[C@@H]1[C@@H]2CC[C@]2(C)C(=O)CC[C@@H]12 [Compound 3] | > 100 µM | ≥ 1.32 µM | 49.2 µM | 7.98 µM | > 100 µM | 4.89 µM | 84.5 µM | 3.45 µM | 16.8 µM | 55.6 µM | 3 µM | 11.6 µM | 3.29 µM | 46.6 µM | 8.72 µM | 44.2 µM | 2.72 µM | 10.1 µM | 5.82 µM | 1.74 µM | EndoG mean intensity (endonuclease G (EndoG)): No significant induction; toxicity against HFF1 cells (in words) (HFF-1 cell line): did not show any notable toxicity; HO1 staining in TUNEL-positive cells (oxidative injury) (heme oxygenase-1 (HO1)): strongly induced oxidative injury; GI50 (SK-MEL-28; SK-MEL-28 melanoma cell line): 1.88 µM; TGI (total growth inhibition) (UACC-257): 28.8 µM; TGI (total growth inhibition) (LOX IMVI): 3.18 µM; GI50 (UACC-62; [4]): 3.03 µM; LC50 (50% lethal concentration) (UACC-62; Homo sapiens): > 100 µM; TGI (total growth inhibition) (UACC-62; UACC-62 melanoma cell line): 10.3 µM; CC50 (SK-MEL-5): 41.4 µM; GI50 (SK-MEL-5): 2.62 µM; TGI (total growth inhibition) (SK-MEL-5): 7.41 µM; apoptosis (SK-MEL-28 cell line; SK-MEL-28, 6 µM): 23%; apoptosis (SK-MEL-28 cell line; SK-MEL-28, 12 µM): 54%; CAD mean intensity [1]: No significant induction; colocalization of CAD with TUNEL (caspase-mediated apoptosis) [1]: induced the colocalization of CAD with TUNEL
C[C@]12CCc3nc(Nc4ccccc4)sc3C1=CC[C@@H]1[C@@H]2CC[C@]2(C)C(=O)CC[C@@H]12 [Compound 2] | 21 µM | 20.5 µM | > 100 µM | >100 µM | > 100 µM | 23.8 µM | > 100 µM | 21.2 µM | >100 µM | > 100 µM | 17.1 µM | 60.8 µM | < 10 µM | > 100 µM | 50.9 µM | > 100 µM | 3.49 µM | >100 µM | 48.1 µM | 3.22 µM | TGI (total growth inhibition) (UACC-257): 94.5 µM; GI50 (M14; M14 melanoma cell line): 7.88 µM; TGI (total growth inhibition) (LOX IMVI): 10.8 µM; GI50 (UACC-62; [4]): < 10 µM; LC50 (50% lethal concentration) (UACC-62; Homo sapiens): 89.7 µM; GI50 (UACC-62; UACC-62 melanoma cell line): 9.54 µM; TGI (total growth inhibition) (UACC-62; UACC-62 melanoma cell line): 29.6 µM; CC50 (SK-MEL-5): 66.2 µM; GI50 (SK-MEL-5): 10.2 µM; TGI (total growth inhibition) (SK-MEL-5): 26.0 µM
C[C@]12CCc3nc(Nc4cccc(F)c4)sc3C1=CC[C@@H]1[C@@H]2CC[C@]2(C)C(=O)CC[C@@H]12 [Compound 5] | 5.9 µM | ≥ 1.32 µM | 19.9 µM | 4.27 µM | > 100 µM | 5.47 µM | 26.7 µM | 1.94 µM | 5.04 µM | 26.7 µM | 1.86 µM | 5.19 µM | 2.36 µM | 81.4 µM | 7.23 µM | > 100 µM | 2.74 µM | 13.1 µM | 6.16 µM | 1.67 µM | EndoG mean intensity (endonuclease G (EndoG)): No significant induction; toxicity against HFF1 cells (in words) (HFF-1 cell line): somewhat toxic; HO1 mean intensity (oxidative injury) (heme oxygenase-1 (HO1)): induced oxidative injury; HO1 staining in TUNEL-positive cells (oxidative injury) (heme oxygenase-1 (HO1)): strongly induced oxidative injury; GI50 (SK-MEL-28; SK-MEL-28 melanoma cell line): 1.52 µM; TGI (total growth inhibition) (UACC-257): 64 µM; TGI (total growth inhibition) (LOX IMVI): 3.21 µM; GI50 (UACC-62; [4]): 1.54 µM; LC50 (50% lethal concentration) (UACC-62; Homo sapiens): 6.31 µM; TGI (total growth inhibition) (UACC-62; UACC-62 melanoma cell line): 3.12 µM; CC50 (SK-MEL-5): 9.24 µM; GI50 (SK-MEL-5): 2.02 µM; TGI (total growth inhibition) (SK-MEL-5): 4.32 µM; apoptosis (SK-MEL-28 cell line; SK-MEL-28, 12 µM): 100%; CAD mean intensity [1]: No significant induction; colocalization of CAD with TUNEL (caspase-mediated apoptosis) [1]: induced the colocalization of CAD with TUNEL
Cc1ccc(Nc2nc3c(s2)C2=CC[C@@H]4[C@H](CC[C@]5(C)C(=O)CC[C@@H]45)[C@@]2(C)CC3)c(C)c1 [Compound 7] | 40 µM | 2.31 µM | > 100 µM | 6.08 µM | > 100 µM | 3.7 µM | > 100 µM | 1.99 µM | 5.55 µM | 22.7 µM | 2.19 µM | 4.74 µM | 1.85 µM | > 100 µM | 3.79 µM | > 100 µM | 3.02 µM | >100 µM | 5.96 µM | 1.64 µM | TGI (total growth inhibition) (LOX IMVI): 3.13 µM; GI50 (UACC-62; [4]): 1.72 µM; LC50 (50% lethal concentration) (UACC-62; Homo sapiens): 9.02 µM; TGI (total growth inhibition) (UACC-62; UACC-62 melanoma cell line): 3.94 µM; CC50 (SK-MEL-5): 7.47 µM; GI50 (SK-MEL-5): 1.86 µM; TGI (total growth inhibition) (SK-MEL-5): 3.73 µM
C[C@]12CCc3nc(Nc4cccc(O)c4)sc3C1=CC[C@@H]1[C@@H]2CC[C@]2(C)C(=O)CC[C@@H]12 [Compound 4] | 8.6 µM | ≥ 1.32 µM | > 100 µM | 3.31 µM | > 100 µM | 3.69 µM | > 100 µM | 1.49 µM | 3.01 µM | 91.4 µM | 2.86 µM | 9.99 µM | 2.97 µM | > 100 µM | >100 µM | > 100 µM | 2.53 µM | >100 µM | 5.94 µM | 1.67 µM | EndoG mean intensity (endonuclease G (EndoG)): No significant induction; HO1 mean intensity (oxidative injury) (heme oxygenase-1 (HO1)): induced oxidative injury; GI50 (SK-MEL-28; SK-MEL-28 melanoma cell line): 1.32 µM; TGI (total growth inhibition) (UACC-257): >100 µM; TGI (total growth inhibition) (LOX IMVI): 3.15 µM; GI50 (UACC-62; [4]): 2.08 µM; LC50 (50% lethal concentration) (UACC-62; Homo sapiens): > 100 µM; TGI (total growth inhibition) (UACC-62; UACC-62 melanoma cell line): 5.25 µM; CC50 (SK-MEL-5): > 100 µM; GI50 (SK-MEL-5): 5.7 µM; TGI (total growth inhibition) (SK-MEL-5): >100 µM; CAD mean intensity [1]: No significant induction; colocalization of CAD with TUNEL (caspase-mediated apoptosis) [1]: induced the colocalization of CAD with TUNEL
